# Columns and labels:
# Type in all cases: biochemical
# [1] = biological target: T1, cathepsin B isolated from human liver (Homo sapiens, UniProt P07858); experiment: Cathepsin B kinetic fluorescence enzyme inhibition assay; details: selectivity ratio versus calpain I
# T1 construct: cathepsin B—isolated from human liver; purchased Calbiochem 219362; host or cells: human liver (tissue isolate)
# Method: (§1) The following solutions and buffers were employed: • HBS (for 40 ml): 800 μl M HEPES; 2.16 ml 100 mM KCl; 4.8 ml 1M NaCl; 3.59 ml 5% glucose; 60 μl μM MgSO4; 400 μl 100 mM Na pyruvate, 28.19 ml water; pH 7.2-7.5. • lysis buffer (for 20 ml): 400 μl M Tris pH 8.2; 2.74 ml 1M NaCl; 520 μl 0.5M EDTA; 2 ml 10% triton X-100; 0.8 ml (=1:25) CompletePlus (1 tablet/2 ml H2O); 200 μl 100 mM Pefabloc; 13.34 ml water, pH 8.2. • TBST (10×) (for 1 l): 100 mM Tris (12.1 g); 1.5M NaCl (87 g); 1% Tween 20 (10 g), adjusted to pH 8. I Enzyme Inhibition In Vitro: • Testing for blockade of the corresponding enzymic activities was carried out by means of kinetic fluorescence assays (excitation 390 nm, emission 460 nm). • Apparent Ki values were calculated from the experimentally determined IC50 values by the Cheng-Prussoff relation assuming a reversible competitive enzyme inhibition. The Km values of the substrates used under the assay conditions indicated above were: 90 μM (Z-Phe-Arg-AMC, cathepsin B), 10 μM (Z-Gly-Pro-Arg-AMC, cathepsin K), 2 μM (Z-Phe-Arg-AMC, cathepsin L), and 30 μM (Z-Val-Val-Arg-AMC, cathepsin S). • The indicated Ki values are averages of the inhibition constants calculated on the basis of 2 to 4 independent dose-effect plots.
# (§2) The following assays were used: • 1. Calpain I: • 20 nM calpain-I—isolated from human erythrocytes (Calbiochem #208713), 100 μM Suc-Leu-Tyr-AMC (Bachem #1-1355) as substrate in buffer with 62 mM imidazole, 0.3 mM CaCl2, 0.10% CHAPS, 0.05% BSA, 1 mM DTT at pH 7.3 and room temperature. • 2. Cathepsin B: • 0.25 nM cathepsin B—isolated from human liver (Calbiochem #219362), 100 μM Z-Phe-Arg-AMC (Bachem #I-1160) as substrate 50 mM MES, 2 mM EDTA, 0.05% Brij 35, 2.5 mM L-cysteine, pH 6.0, room temperature. • 3. Cathepsin K: • 3 nM cathepsin K—activated from recombinant human procathepsin K from E. coli (Calbiochem #342001), 10 μM Z-Gly-Pro-Arg-AMC (Biomol #P-142) as substrate in 50 mM MES, 2 mM EDTA, 0.05% Brij 35, 2.5 mM L-cysteine, pH 6.0, room temperature. • 4. Cathepsin L: • 1 nM cathepsin L—isolated from human liver (Calbiochem #219402), 2 μM Z-Phe-Arg-AMC (Bachem #1-1160) as substrate in 50 mM MES, 2 mM EDTA, 0.05% Brij 35, 2.5 mM L-cysteine, pH 6.0, room temperature. • 5. Cathepsin S: • 0.5 nM recombinant human cathepsin S from E. coli (Calbiochem #219343), 20 μM Z-Val-Val-Arg-AMC (Bachem #1-1540) as substrate in 50 mM MES, 2 mM EDTA, 0.05% Brij 35, 2.5 mM L-cysteine, pH 6.0, room temperature. • The results of the in vitro determination are indicated in Table 1. The following abbreviations are used in Table 1: • The “Calpain activity” column, ++ stands for a calpain Ki (Ki(calpain)) of ≦40 nM and + means: 40 nM<Ki(Calpain)≦100 nM. • The “Sel. cat. B” column indicates the Ki(cathepsin B)/Ki(calpain) ratio. In this connection, ++ means a Ki(cathepsin B)/Ki(calpain) ratio of ≧30 and + means 10≦Ki(cathepsin B)/Ki(calpain)<30. • The “Sel. cat. K” column indicates the Ki(cathepsin K)/Ki(calpain) ratio. In this connection, ++ means a Ki(cathepsin K)/Ki(calpain) ratio of ≧30 and + means 10≦Ki(cathepsin K)/Ki(calpain)<30. • The “Sel. cat. L” column indicates the Ki(cathepsin L)/Ki(calpain) ratio. In this connection, ++ means a Ki(cathepsin L)/Ki(calpain) ratio of ≧50 and + means 30≦Ki(cathepsin L)/Ki(calpain)<50. • The “Sel. cat. S” column indicates the Ki(cathepsin S)/Ki(calpain) ratio. In this connection, ++ means a Ki(cathepsin S)/Ki(calpain) ratio of ≧100 and + means 50≦Ki(cathepsin S)/Ki(calpain)<100.
# [2] = biological target: T2, recombinant human cathepsin S (Homo sapiens, UniProt P25774); experiment: Cathepsin S kinetic fluorescence enzyme inhibition assay; details: selectivity ratio versus calpain I
# T2 construct: purchased Calbiochem 219343; host or cells: E. coli
# T2 sequence (P25774 115-331): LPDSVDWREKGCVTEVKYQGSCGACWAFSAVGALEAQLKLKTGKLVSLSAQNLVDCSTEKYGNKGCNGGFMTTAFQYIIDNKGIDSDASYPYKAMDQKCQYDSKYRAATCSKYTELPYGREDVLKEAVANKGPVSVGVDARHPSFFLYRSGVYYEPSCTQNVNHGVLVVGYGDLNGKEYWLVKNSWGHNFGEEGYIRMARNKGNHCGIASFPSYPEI
# How it was run: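 Inhibition is measured at room temperature in cysteine-containing MES buffer, pH 6.0, by continuous fluorescence at 460 nm. Cathepsin S (0.5 nM) uses 20 μM Z-Val-Val-Arg-AMC; L (1 nM) and B (0.25 nM) use Z-Phe-Arg-AMC at 2 and 100 μM respectively.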
# [3] = biological target: T3, calpain-I isolated from human erythrocytes (Homo sapiens, UniProt P07384); experiment: Calpain I kinetic fluorescence enzyme inhibition assay; details: apparent Ki from IC50 by Cheng-Prussoff; average of 2 to 4 dose-effect plots
# T3 construct: calpain-I—isolated from human erythrocytes; purchased Calbiochem 208713; host or cells: human erythrocytes (tissue isolate)
# T3 sequence (P07384 1-714): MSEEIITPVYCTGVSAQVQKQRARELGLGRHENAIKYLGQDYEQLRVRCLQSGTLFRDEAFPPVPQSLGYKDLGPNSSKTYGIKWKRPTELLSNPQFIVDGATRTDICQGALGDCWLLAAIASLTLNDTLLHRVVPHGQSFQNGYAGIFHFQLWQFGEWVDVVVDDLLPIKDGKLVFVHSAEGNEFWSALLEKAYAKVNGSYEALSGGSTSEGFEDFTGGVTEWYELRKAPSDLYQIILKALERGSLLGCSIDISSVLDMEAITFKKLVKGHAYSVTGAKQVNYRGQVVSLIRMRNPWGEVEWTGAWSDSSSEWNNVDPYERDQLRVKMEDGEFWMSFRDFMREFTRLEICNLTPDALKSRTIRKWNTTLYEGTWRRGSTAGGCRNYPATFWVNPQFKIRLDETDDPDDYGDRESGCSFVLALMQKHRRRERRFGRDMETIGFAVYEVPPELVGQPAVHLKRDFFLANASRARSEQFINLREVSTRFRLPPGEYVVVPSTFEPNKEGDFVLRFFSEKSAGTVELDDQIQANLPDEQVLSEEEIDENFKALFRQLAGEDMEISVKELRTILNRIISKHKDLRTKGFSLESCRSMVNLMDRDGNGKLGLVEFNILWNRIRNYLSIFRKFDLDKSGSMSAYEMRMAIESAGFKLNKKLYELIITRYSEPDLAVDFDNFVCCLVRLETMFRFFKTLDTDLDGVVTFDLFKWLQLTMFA
# T3 sequence (P04632 1-268 partner): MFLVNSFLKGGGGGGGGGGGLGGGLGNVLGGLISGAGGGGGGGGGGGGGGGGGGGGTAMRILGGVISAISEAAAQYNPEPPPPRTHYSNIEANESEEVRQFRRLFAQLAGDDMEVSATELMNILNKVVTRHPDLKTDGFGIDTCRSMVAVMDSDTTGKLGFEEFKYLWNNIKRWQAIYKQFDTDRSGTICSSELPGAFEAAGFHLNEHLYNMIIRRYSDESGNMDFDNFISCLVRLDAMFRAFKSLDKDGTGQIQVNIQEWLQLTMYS
# [4] = biological target: T4, cathepsin L isolated from human liver (Homo sapiens, UniProt P07711); experiment: Cathepsin L kinetic fluorescence enzyme inhibition assay; details: selectivity ratio versus calpain I
# T4 construct: cathepsin L—isolated from human liver; purchased Calbiochem 219402; host or cells: human liver (tissue isolate)
# T4 sequence (P07711 114-333): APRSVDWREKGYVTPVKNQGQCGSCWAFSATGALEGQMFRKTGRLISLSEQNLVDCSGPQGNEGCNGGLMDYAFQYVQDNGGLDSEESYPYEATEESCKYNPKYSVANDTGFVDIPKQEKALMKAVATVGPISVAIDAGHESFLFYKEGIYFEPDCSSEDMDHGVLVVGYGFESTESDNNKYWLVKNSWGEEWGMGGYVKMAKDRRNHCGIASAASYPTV
# Method: as §1, §2
Compound,Sel cat. B (Ki(cathepsin B)/Ki(calpain) ratio) [1],Ki [3] [nM],Sel cat. S (Ki(cathepsin S)/Ki(calpain) ratio) [2],Sel cat. L (Ki(cathepsin L)/Ki(calpain) ratio) [4]
"CCCCC(NC(=O)c1cccnc1-n1ccc(-c2ccc(N3CCOCC3)cc2)n1)C(=O)C(N)=O (stereo not shown) [Example 33, N-{1-[Amino(oxo)acetyl]pentyl}-2-[3-(4-morpholin-4-ylphenyl)-1H-pyrazol-1-yl]nicotinamide]",+ (10≦Ki(cathepsin B)/Ki(calpain)<30),≤ 40,+ (50≦Ki(cathepsin S)/Ki(calpain)<100),
"NC(=O)C(=O)C(Cc1cccs1)NC(=O)c1cccnc1-n1ccc(-c2ccccc2)n1 (stereo not shown) [Example 40, N-[3-Amino-2,3-dioxo-1-(2-thienylmethyl)propyl]-2-(3-phenyl-1H-pyrazol-1-yl)pyridine-3-carboxamide]",+ (10≦Ki(cathepsin B)/Ki(calpain)<30),≤ 40,++ (Ki(cathepsin S)/Ki(calpain) ratio of ≧100),++ (Ki(cathepsin L)/Ki(calpain) ratio of ≧50)
"Cc1cn(-c2ncccc2C(=O)NC(Cc2ccccc2)C(=O)C(N)=O)nc1-c1ccccc1 (stereo not shown) [Example 84, N-(3-Amino-1-benzyl-2,3-dioxopropyl)-2-(4-methyl-3-phenyl-1H-pyrazol-1-yl)nicotinamide]",+ (10≦Ki(cathepsin B)/Ki(calpain)<30),≤ 40,++ (Ki(cathepsin S)/Ki(calpain) ratio of ≧100),++ (Ki(cathepsin L)/Ki(calpain) ratio of ≧50)
"NC(=O)C(=O)C(Cc1ccc(Br)cc1)NC(=O)c1cccnc1-n1ccc(-c2ccccc2)n1 (stereo not shown) [Example 122, N-{3-Amino-1-[(4-bromophenyl)methyl]-2,3-dioxopropyl}-2-(3-phenyl-1H-pyrazol-1-yl)pyridine-3-carboxamide]",++ (Ki(cathepsin B)/Ki(calpain) ratio of ≧30),≤ 40,++ (Ki(cathepsin S)/Ki(calpain) ratio of ≧100),++ (Ki(cathepsin L)/Ki(calpain) ratio of ≧50)
"CC(C)c1ccc2c(c1)-c1nn(-c3ncccc3C(=O)NC(Cc3ccccc3)C(=O)C(N)=O)cc1CO2 (stereo not shown) [Example 144, N-[3-Amino-2,3-dioxo-1-(phenylmethyl)propyl]-2-[8-(1-methylethyl)chromeno[4,3-c]pyrazol-2(4H)-yl]pyridine-3-carboxamide]",+ (10≦Ki(cathepsin B)/Ki(calpain)<30),≤ 40,++ (Ki(cathepsin S)/Ki(calpain) ratio of ≧100),++ (Ki(cathepsin L)/Ki(calpain) ratio of ≧50)
"N-{3-Amino-1-[(4-fluorophenyl)methyl]-2,3-dioxopropyl}-2-[3-(2,3-dichlorophenyl)-1H-pyrazol-1-yl]pyridine-3-carboxamide [Example 161]",+ (10≦Ki(cathepsin B)/Ki(calpain)<30),,++ (Ki(cathepsin S)/Ki(calpain) ratio of ≧100),+ (30≦Ki(cathepsin L)/Ki(calpain)<50)

# Now from value to compound, other results behind:
Sel cat. B (Ki(cathepsin B)/Ki(calpain) ratio) [1],Ki [3] [nM],Compound,Sel cat. S (Ki(cathepsin S)/Ki(calpain) ratio) [2],Sel cat. L (Ki(cathepsin L)/Ki(calpain) ratio) [4]
+ (10≦Ki(cathepsin B)/Ki(calpain)<30),≤ 40,"NC(=O)C(=O)C(Cc1ccccc1)NC(=O)c1cccnc1-n1ccc(-c2ccc(N3CCCCC3)cc2)n1 (stereo not shown) [Example 64, N-(3-Amino-1-benzyl-2,3-dioxopropyl)-2-[3-(4-piperidin-1-ylphenyl)-1H-pyrazol-1-yl]nicotinamide]",++ (Ki(cathepsin S)/Ki(calpain) ratio of ≧100),
+ (10≦Ki(cathepsin B)/Ki(calpain)<30),,"NC(=O)C(=O)C(Cc1ccccc1)NC(=O)c1cccnc1-n1ccc(-c2cccc3cnccc23)n1 (stereo not shown) [Example 156, N-[3-Amino-2,3-dioxo-1-(phenylmethyl)propyl]-2-(3-isoquinolin-5-yl-1H-pyrazol-1-yl)pyridine-3-carboxamide]",++ (Ki(cathepsin S)/Ki(calpain) ratio of ≧100),+ (30≦Ki(cathepsin L)/Ki(calpain)<50)
